Legend:
Details in all cases: exposure time 48 h
[1] = test system: Caenorhabditis elegans N2; assay: AC50 for larval growth inhibition (Hill fit); higher = less potent
Method in brief: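 AC50 values come from a constrained Hill fit by weighted genetic-algorithm regression and are censored when out of range. The fit used only wells with at least 10 worms. Each well of a 96-well plate held 50 synchronised C. elegans N2 L1 larvae in K-medium with killed OP50, 1% DMSO and 0.5–200 µM chemical for 48 h at 20°C. A COPAS Biosort recorded each worm's size as extinction, which was log-transformed and averaged per well.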

[2] = test system: Caenorhabditis elegans N2; assay: lowest effective concentration for larval growth inhibition (size below effect threshold); higher = less potent
Method in brief: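 Log-transformed well means of per-worm extinction, read as size on a Biosort, came from 50 C. elegans N2 L1 larvae per 96-well grown 48 h at 20°C in K-medium with killed bacteria, 1% DMSO and 0.5 to 200 µM chemical. The lowest effective concentration is the first dose at which the plate-adjusted mean size is below the threshold and stays below it at every higher dose. The threshold is 5.665.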

[3] = test system: Caenorhabditis elegans N2; assay: mean nematode size ln(EXT) after 48 h, plate-adjusted (DMSO control set to 6) (ln(EXT), control-adjusted); higher = larger nematodes / less growth inhibition
Method in brief: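 In K-medium with killed OP50, 1% DMSO and 0.5–200 µM chemical, synchronised N2 L1 larvae of C. elegans (50 per well) grew for 48 h at 20°C. Extinction was read for every worm on the Biosort, with debris removed by a growth model. Natural-log values averaged per well gave mean size, which was corrected per plate by subtracting the vehicle control mean and adding 6.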

Row | SMILES | AC50 for larval growth inhibition [1] | lowest effective concentration [2] | mean nematode size ln(EXT) (ln) ([3]; 0.5 µM) | mean nematode size ln(EXT) (ln) ([3]; 1 µM) | mean nematode size ln(EXT) (ln) ([3]; 5 µM) | mean nematode size ln(EXT) (ln) ([3]; 10 µM) | mean nematode size ln(EXT) (ln) ([3]; 50 µM) | mean nematode size ln(EXT) (ln) ([3]; 100 µM) | mean nematode size ln(EXT) (ln) ([3]; 200 µM)
1 | CC1(C)C(C(=O)OC(C#N)c2cccc(Oc3ccccc3)c2)C1(C)C (stereo not drawn) [Fenpropathrin] | > 200 µM | 50 µM | 5.91 | 5.81 | 5.77 | 5.93 | 5.22 | 5.22 | 4.68
2 | CN(C)NC(=O)CCC(=O)O [Daminozide] | > 200 µM | 200 µM | 6.43 | 6.07 | 6.34 | 6.17 | 6 | 6.01 | 5.44
3 | CN(C)c1ccc(C(=O)c2ccc(N(C)C)cc2)cc1 [Michler's ketone] | > 200 µM | 200 µM | 5.78 | 5.87 | 5.83 | 5.78 | 5.82 | 5.88 | 5.58
4 | NC(=O)N(O)[C@@H]1C=C[C@H](Oc2cccc(Oc3ccc(F)cc3)c2)C1 | 72.9 µM | 100 µM | 5.9 | 6.14 | 6.17 | 6.17 | 5.89 | 5.05 | 4.86
5 | CCOc1ccc2c(c1)C(C)=CC(C)(C)N2 [Ethoxyquin] | > 200 µM | 100 µM | 5.78 | 5.74 | 5.77 | 5.78 | 5.71 | 5.61 | 5.17
6 | FC(F)C(F)(F)OCC(Cn1cncn1)c1ccc(Cl)cc1Cl (stereo not drawn) [Tetraconazole] | 48.5 µM | 10 µM | 5.81 | 5.97 | 5.98 | 5.65 | 4.91 | 4.36 | 4.07
7 | CCCN(CCC)c1c([N+](=O)[O-])cc(C(C)C)cc1[N+](=O)[O-] [Isopropalin] | > 200 µM | 50 µM | 5.89 | 5.9 | 5.87 | 5.73 | 5.47 | 5.14 | 4.96
8 | O=C(O)C(F)(F)C(F)(F)C(F)(F)C(F)(F)C(F)(F)C(F)(F)C(F)(F)C(F)(F)F [Perfluorononanoic acid] | 39 µM | 10 µM | 5.85 | 5.84 | 5.81 | 5.61 | 4.27 | 3.92 | 3.1
9 | CC(C)N(C(=O)COc1nnc(C(F)(F)F)s1)c1ccc(F)cc1 [Flufenacet] | 21.5 µM | 200 µM | 5.91 | 5.94 | 6.03 | 6.05 | 5.45 | 6.04 | 5.52
10 | Cc1[nH]c(=O)n(C(C)(C)C)c(=O)c1Cl [Terbacil] | > 200 µM | 200 µM | 5.34 | 5.77 | 5.2 | 5.76 | 5.1 | 5.87 | 5.23
11 | Cc1nc(-c2ccc3c(c2)CCN(CCC2CCC(NC(=O)/C=C/c4ccc(F)cc4)CC2)CC3)no1 (stereo not drawn) | > 200 µM | 100 µM | 5.87 | 5.83 | 5.82 | 5.86 | 5.74 | 5.6 | 5.59
12 | CC(C)(C)OOC(C)(C)CCC(C)(C)OOC(C)(C)C [2,5-Dimethyl-2,5-bis(tert-butylperoxy)hexane] | 185 µM | 200 µM | 5.81 | 5.83 | 5.81 | 5.79 | 5.78 | 5.79 | 4.23
13 | Clc1ccc(C(c2ccc(Cl)cc2)C(Cl)(Cl)Cl)cc1 [p,p'-DDT] | 3.83 µM | 5 µM | 6 | 5.91 | 4.31 | 3.75 | 3.44 | 3.36 | 3.29
14 | C=CC(=O)OCCCCCC(C)C [Isooctyl acrylate] | > 200 µM | 200 µM | 5.42 | 5.47 | 5.59 | 5.64 | 5.7 | 5.68 | 5.52
15 | CCC(C)(c1ccc(O)cc1)c1ccc(O)cc1 [Bisphenol B] | 87.1 µM | 100 µM | 5.9 | 5.81 | 5.9 | 5.74 | 5.87 | 5.14 | 4.74
16 | CC#Cc1cc(C)nc(Nc2ccccc2)n1 [Mepanipyrim] | > 200 µM | 200 µM | 5.81 | 5.81 | 5.8 | 5.84 | 5.7 | 5.75 | 5.21
17 | Nc1c(Cl)c(F)nc(OCC(=O)O)c1Cl [Fluroxypyr] | > 200 µM | 200 µM | 5.6 | 5.62 | 5.73 | 5.61 | 5.75 | 5.78 | 5.64
18 | [Cl][Hg][Cl] [Mercuric chloride] | 7.77 µM | 5 µM | 5.91 | 5.84 | 5.47 | 4.41 | 3.59 | 3.72 | 3.64
19 | O=S1OCC2C(CO1)C1(Cl)C(Cl)=C(Cl)C2(Cl)C1(Cl)Cl (stereo not drawn) [Endosulfan] | 6.12 µM | 5 µM | 5.74 | 5.72 | 5.08 | 3.84 | 3.51 | 3.24 | 3.47

Row | SMILES | AC50 for larval growth inhibition [1] | lowest effective concentration [2] | mean nematode size ln(EXT) (ln) ([3]; 0.5 µM) | mean nematode size ln(EXT) (ln) ([3]; 1 µM) | mean nematode size ln(EXT) (ln) ([3]; 5 µM) | mean nematode size ln(EXT) (ln) ([3]; 10 µM) | mean nematode size ln(EXT) (ln) ([3]; 50 µM) | mean nematode size ln(EXT) (ln) ([3]; 100 µM) | mean nematode size ln(EXT) (ln) ([3]; 200 µM)
20 | CCOP(=S)(Oc1cnc(C(C)(C)C)nc1)OC(C)C (stereo not drawn) [Tebupirimfos] | 46.5 µM | 50 µM | 6 | 6.01 | 5.89 | 5.76 | 4.5 | 3.66 | 3.56
21 | O=C=NCCCCCCN=C=O [1,6-Diisocyanatohexane] | > 200 µM | 200 µM | 5.82 | 5.86 | 5.84 | 5.84 | 5.94 | 5.93 | 5.66
22 | OC12N=C(c3ccccc3)SC1Cc1cc(Cl)ccc12 (stereo not drawn) | 48.6 µM | 5 µM | 5.69 | 5.74 | 5.5 | 5.45 | 4.53 | 4.08 | 3.96
23 | CC(C)Oc1cc(-n2nc(C(C)(C)C)oc2=O)c(Cl)cc1Cl [Oxadiazon] | 120 µM | 200 µM | 6.14 | 6.23 | 6.09 | 5.95 | 6.05 | 5.95 | 3.29
24 | CCSC(=O)N1CCCCCC1 [Molinate] | > 200 µM | ≤ 0.5 µM | 5.42 | 5.42 | 5.29 | 5.63 | 5.44 | 5.62 | 5.21
25 | O=[N+]([O-])/N=C1\NCCN1Cc1ccc(Cl)nc1 [Imidacloprid] | 111 µM | 100 µM | 5.78 | 6.02 | 6.07 | 6.08 | 5.96 | 5.54 | 4.86
26 | CC1(C)CC(N=C=O)CC(C)(CN=C=O)C1 (mixture of isomers) [Isophorone diisocyanate, mixture of isomers] | > 200 µM | 100 µM | 5.94 | 5.89 | 5.97 | 5.71 | 5.76 | 5.37 | 4.55
27 | O=P(Oc1ccccc1)(Oc1ccccc1)Oc1ccccc1 [Triphenyl phosphate] | 20.5 µM | 1 µM | 5.84 | 5.63 | 5.25 | 4.99 | 4.17 | 3.78 | 3.66
28 | C1=CCCC=CCCC=CCC1 [1,5,9-Cyclododecatriene] | > 200 µM | 200 µM | 5.89 | 5.9 | 5.9 | 5.83 | 5.92 | 5.86 | 5.34
29 | CCCCN(CC)c1c([N+](=O)[O-])cc(C(F)(F)F)cc1[N+](=O)[O-] [Benfluralin] | 175 µM | 50 µM | 5.76 | 5.73 | 5.82 | 5.7 | 5.31 | 5.04 | 4.16
30 | OC(Cn1cncn1)(Cn1cncn1)c1ccc(F)cc1F [Fluconazole] | > 200 µM | 200 µM | 6.08 | 6.04 | 6.06 | 6.09 | 6.01 | 5.99 | 5.56
31 | COP(=S)(OC)Oc1ccc([N+](=O)[O-])cc1 [Parathion-methyl] | 15.1 µM | 5 µM | 5.71 | 5.8 | 5.52 | 5.25 | 3.72 | 3.66 | 3.7
32 | COc1ccc(C(c2ccc(OC)cc2)C(Cl)(Cl)Cl)cc1 [Methoxychlor] | 39 µM | ≤ 0.5 µM | 5.6 | 5.46 | 5.58 | 5.19 | 4.71 | 4.01 | 3.61
33 | CC(C)CCCCCCCOC(=O)CCCCC(=O)OCCCCCCCC(C)C [Diisodecyl adipate] | > 200 µM | 200 µM | 5.86 | 5.91 | 5.83 | 5.89 | 5.89 | 5.89 | 5.53
34 | O=C(Oc1ccc(Br)cc1)N1CCN2CCC1CC2 [4-bromophenyl 1,4-diazabicyclo[3.2.2]nonane-4-carboxylate] | > 200 µM | 50 µM | 5.84 | 5.83 | 5.81 | 5.83 | 5.65 | 5.6 | 5.33
35 | CC[C@H]1CC[C@H](NCc2cc3c(cc2OC)[C@H]2C[C@H]2C(=O)N3C)[C@H](c2ccccc2)N1 | > 200 µM | 200 µM | 5.85 | 5.81 | 5.87 | 5.86 | 5.77 | 5.85 | 5.48
36 | c1ccc2cc3c(ccc4ccccc43)cc2c1 [Benz[a]anthracene] | 24.9 µM | 1 µM | 5.89 | 4.38 | 5.22 | 5.01 | 4.59 | 4.58 | 3.32
37 | N#Cc1cccnc1 [3-Pyridinecarbonitrile] | 18.2 µM | 5 µM | 5.73 | 5.78 | 5.61 | 5.65 | 5.65 | 5.65 | 5.54

— the supplement of paper PMC4858399
